Source: US20230082968A1, “EXOGENOUS NITRIC OXIDE FOR IMPROVED SUSCEPTIBILITY AND LOWERED ANTIBIOTIC RESISTANCE IN RESISTANT RESPIRATORY BACTERIA” (The University of North Carolina at Chapel Hill, priority 2020, published 2023)
Values after ≈ are worked out from the molar mass of the structure shown.

Assays:
AR 542 = assay: Nitric oxide pretreatment with planktonic bacteria; type: cell-based, Klebsiella pneumoniae
Description: (§1) After exposure, wells were serially diluted in sterile MilliQ water and spiral plated on TSA. Viability was assessed by colony counting.

ATCC MRSA = assay: Serial passaging resistance assay; type: cell-based, Methicillin-resistant S. aureus
Description: Bacteria at a final concentration of 10^6 CFU/mL in TSB were incubated with serial dilutions of COS/NO and/or tobramycin for 24 h. Growth was assessed by measuring absorbance at 600 nm. The wells that had the highest concentration of test agent and an OD600 corresponding to more than 10^8 CFU/mL were diluted to 10^6 cfu/mL in TSB and incubated with fresh solutions of COS/NO or tobramycin for 24 h. A single passage was defined as one exposure, incubation, and subsequent dilution. Bacteria were passaged for up to 70 days.

PAK = assay: Nitric oxide pretreatment with planktonic bacteria; type: cell-based, Pseudomonas aeruginosa; settings: antibiotic 2 µg/mL, NO-pretreatment 25% MIC 4 h
Description: as §1

ATCC BCC = assay: Nitric oxide pretreatment with planktonic bacteria; type: cell-based, Burkholderia cepacia complex
Description: as §1

AR 237 = assay: Nitric oxide pretreatment with planktonic bacteria; type: cell-based, P. aeruginosa; settings: AR 237, antibiotic 0.625 µg/mL, NO-pretreatment 25% MIC 4 h
Description: as §1

AR 239 = assay: Nitric oxide pretreatment with planktonic bacteria; type: cell-based, P. aeruginosa; settings: AR 239, antibiotic 2000 µg/mL, NO-pretreatment 25% MIC 4 h
Description: as §1

AR 229 = assay: Nitric oxide pretreatment with planktonic bacteria; type: cell-based, P. aeruginosa; settings: AR 229, antibiotic 0.625 µg/mL, NO-pretreatment 25% MIC 4 h
Description: as §1

[1] = AR 542, antibiotic 500 µg/mL, NO-pretreatment 25% MIC 4 h

## NC[C@H]1O[C@H](O[C@H]2[C@H](O)[C@@H](O[C@H]3O[C@H](CO)[C@@H](O)[C@H](N)[C@H]3O)[C@H](N)C[C@@H]2N)[C@H](N)C[C@@H]1O [Tobramycin]
AR 542; [1]
  Classification: Synergistic
  Log Difference in bacteria viability with vs without NO-pretreatment: 2.29 log
AR 542; K. pneumoniae AR 542, NO-pretreatment
  tobramycin-susceptibility with the addition of NO: significant improvement
ATCC MRSA; ATCC MRSA, after n = 10 passages
  MICn: 16000 µg/mL
ATCC MRSA; MRSA, concomitant delivery with COS/NO at 25% of its MIC
  development of tobramycin-resistance: slowing or prevention
ATCC MRSA; MRSA, tobramycin alone, serial passages
  change of tobramycin MIC on parallel exposures: increases
ATCC MRSA; Staphylococcus aureus, MRSA, read-out: MIC0
  MIC: 2000 µg/mL (≈ 4.28 mM)
PAK
  Classification: Synergistic
  Log Difference in bacteria viability with vs without NO-pretreatment: 3.00 log
ATCC BCC; ATCC BCC, antibiotic […], NO-pretreatment 25% MIC 4 h
  Log Difference in bacteria viability with vs without NO-pretreatment: 5.23 log
ATCC BCC; B. cepacia complex, NO-pretreatment
  tobramycin-susceptibility with the addition of NO: significant improvement
AR 237
  Classification: Synergistic
  Log Difference in bacteria viability with vs without NO-pretreatment: 3.70 log
AR 239
  Classification: Synergistic
  Log Difference in bacteria viability with vs without NO-pretreatment: 2.27 log
AR 229
  Classification: Synergistic
  Log Difference in bacteria viability with vs without NO-pretreatment: 4.08 log
